Measured values from BigSolDB 2.1.

CC(=O)Oc1ccc(C(c2ccc(OC(C)=O)cc2)c2ccccn2)cc1
solubility (mole fraction)
Conditions	288.15 K	293.15 K	298.15 K	303.15 K	308.15 K
in DMAc	0.0391	0.0448	0.0512	0.0583	0.0659
in DMF	0.0372	0.0429	0.0492	0.0561	0.0638
in NMP	0.0643	0.0703	0.0768	0.0837	0.0909
in THF	0.0192	0.0237	0.0291	0.0355	0.0431
in acetone	0.0124	0.0154	0.0189	0.0231	0.0281
in acetonitrile	0.0112	0.0135	0.0162	0.0193	0.0229
in ethanol	0.000471	0.000639	0.000852	0.00113	0.00149
in isopropanol	0.000238	0.000327	0.000443	0.000599	0.000804
in methanol	0.000961	0.00123	0.00155	0.00196	0.00245
in n-butanol	0.000393	0.000537	0.000719	0.000968	0.00128
in n-propanol	0.000462	0.000608	0.000788	0.00102	0.00131
in transcutol	0.00761	0.0092	0.011	0.0131	0.0156
in water	1.32e-07	1.56e-07	1.83e-07	2.14e-07	2.49e-07

Conditions	solubility (mole fraction)
in PEG-400, 288.15 K	0.0132
in PEG-400, 293.15 K	0.0154
in PEG-400, 298.15 K	0.0179
in PEG-400, 303.15 K	0.0206
in PEG-400, 308.15 K	0.0237
